What was measured:
HepG2 cells = test: Cell viability (WST-1 assay), HepG2 cells; type: cell-based; details: Homo sapiens
Protocol: (§1) Human liver cancer cells of Hep3B, Huh7, HepG2 and PLC/PRF5 were cultured in DMEM supplemented with 10% FBS, 100 U/ml penicillin and 100 μg/ml streptomycin.
(§2) A lentiviral construct expressing STAT1 shRNA, p65 shRNA and LCN2 shRNA was purchased from Sigma-Aldrich. Wild-type SULF2, SULF2-N491K, wild-type ERC1, ERC1-H721Q, wild-type NTRK3, NTRK3-N522K, wild-type SHC1 and SHC1-SHC1-P55 cDNA constructs were cloned into MCS-EF1-Puro (System Biosciences, Mountain), the lentiviral vectors for cDNA expression. All lentiviral vectors were transfected into 293 TN cells (System Biosciences) using the Lipofectamine 3000 transfection reagent (Invitrogen, Waltham, Mass., USA). Two days after lentiviral plasmid transfection, particles were collected and used to infect HCC cells. The HDD cells infected with lentivirus were selected using puromycin for 1 week.
(§3) For cell proliferation analysis, 5×10^3 cells were divided into 96-well plates and cultured in DMEM containing various concentrations of anti-cancer drugs and 5% FBS for 48 hours. Cell viability was measured through WST-1 assay (Roche, Gangnam-gu, Seoul, Korea) and four repetitions of each experiment were performed at least 3 times. Cell migration analysis was performed in a 24-well Boyden chamber (8 μm pore size; Coastal; Corning Life Sciences, Lowell, Mass.), 1×10^5 cells were suspended in serum-free 0.2 ml DMEM and added to the upper chamber inlet, and the lower chamber was filled with 0.6 ml DMEM/10% fetal bovine serum. After 6 hours, the cells on the bottom of the membrane were fixed, stained and counted at ×200 magnification with four microscopes.

Huh7 cells = test: Cell viability (WST-1 assay), Huh7 cells; type: cell-based, Human
Protocol: as §1, §2, §3

LCN2 mRNA = LCN2 mRNA expression by qRT-PCR in Hep3B vector, SULF2-WT and SULF2-N491K cells; type: cell-based, Human
Protocol: (§4) Each cell was collected using an RNeasy kit (Qiagen, Venlo, Netherlands) and total RNA was isolated. The mRNA was reverse-transcribed into cDNA using a PrimeScript RT kit (Takara, Shiga, Japan), and then PCR was conducted using the CFX96 Real-Time PCR Detection System (Bio-Rad Laboratories, Hercules, Calif., USA) equipped with SsoAdvanced Universal Supermixes (Bio-Rad). The analysis of each sample was run at least three times for each experiment, and the data for the number was reported in a relative quantity: Mean value (standard deviation) of 2^−ΔΔCT±S.D.

Hep3B cells [1] = test: Transwell (Boyden chamber) cell migration assay, Hep3B cells; type: cell-based, Human
Protocol: as §3

Hep3B cells [2] = test: Cell viability / proliferation (WST-1 assay), Hep3B cells expressing vector, SULF2-WT or SULF2-N491K; type: cell-based, Human; details: for cell proliferation: 0.01-10 μM
Protocol: as §1, §2
Then, in order to identify whether or not the SULF2 mutation changed drug susceptibility, an overexpression system for wild-type SULF2 and SULF2-N491K mutants in Hep3B cells that rarely expressed endogenous SULF2 was established (Lai J P et al., Hepatology 47: 1211-22, 2008).
as §3

amphiregulin mRNA = test: Amphiregulin mRNA level by qRT-PCR in Hep3B vector, SULF2-WT and SULF2-N491K cells; type: cell-based, Human; details: 2 μM sorafenib, 72 hours
Protocol: as §4

[3] = system: Hep3B-SR, SULF2-WT-SR, HepG2-SR and Huh7-SR cells; test: Cell viability of sorafenib-resistant (SR) liver cancer cells; type: cell-based, Human; details: LCN2 siRNA 24 hours, then 5 μM sorafenib 48 hours
Protocol: as §3
After culture for several months, the sorafenib-resistant (SR) cell lines, Vector-SR, SULF2-WT-SR and SULF2-N491K-SR were obtained.
Thus, control siRNA and siRNA for human LCN2 were purchased from Santa Cruz Biotechnology, and each cell was transfected with siRNA using a transfection reagent (Santa Cruz) according to the manufacturer's instructions.

SULF2 mRNA = SULF2 mRNA expression by qRT-PCR in HepG2 and Huh7 cells; type: cell-based, Human; details: sorafenib up to 10 μM for 1, 2, 4 and 12 weeks
Protocol: as §4

EGFR = test: Western blotting of EGFR downstream signaling after amphiregulin treatment; type: cell-based, Human; details: SULF2-WT cells, amphiregulin 50 ng/ml
Protocol: In order to prepare total cell lysate, cells were lysed in a high-salt-content lysis buffer (20 mM Tris-HCl [pH 8.0], 1% Triton X-100, 2 mM EDTA and 1 mM phenylmethylsulfonyl fluoride), incubated on ice for 20 minutes, and centrifuged for 20 minutes to remove cell debris. A total of 20 μg of total cell lysate was used for SDS-polyacrylamide gel electrophoresis, and proteins were transferred to a nitrocellulose membrane and incubated overnight with each antibody at 4° C. The membrane was then incubated at room temperature for 1 hour with a peroxidase-conjugated secondary antibody (PIERCE, Rockford, Ill., USA), and signals were detected using a chemiluminescence detection kit (PIERCE).
Thus, in order to elucidate the mechanism by which sorafenib-mediated EGFR activation is differentially regulated between SULF2-WT and SULF2-N491K, the effect of exogenous stimulation of EGFR by treatment with recombinant human amphiregulin (rhAR) on three types of cells was compared.

For Nc1ncnc2c1c(-c1cccc(OCc3ccccc3)c1)cn2[C@H]1C[C@@H](CN2CCC2)C1 [AEW541], the IC50 (HepG2 cells; HepG2, HepG2 cells expressing ERC1-H721Q) was 2630 nM and the IC50 (HepG2 cells; HepG2, HepG2 cells expressing ERC1-WT) was 4250 nM.

CN[C@@H](C)C(=O)N[C@H](C(=O)N1CC[C@H]2CCN(CCc3ccccc3)C[C@H]21)C1CCCCC1 [LBW242] was tested, and the IC50 (Huh7 cells; Huh7 cells expressing SHC1-P5S) was 2.26 µM and the IC50 (Huh7 cells; Huh7 cells expressing SHC1-WT) was 4.26 µM.

For N#CC(=C(/N)Sc1ccccc1N)/C(C#N)=C(/N)Sc1ccccc1N [MEK inhibitor], the LCN2 expression (LCN2 mRNA; vector or SULF2-N491K cells, U0126 10 μM, 48 hours) was “did not inhibit”.

With CCN(CC)CCCCNc1ncc2cc(-c3cc(OC)cc(OC)c3)c(NC(=O)NC(C)(C)C)nc2n1 [PD173074] the cell migration (Hep3B cells [1]; vector, SULF2-WT or SULF2-N491K cells treated with PD173074) was “inhibition of great migration was not found”, the cell proliferation (Hep3B cells [2]; SULF2-WT cells, 48 hours) was “did not inhibit” and the cell proliferation (Hep3B cells [2]; vector and SULF2-N491K cells, 48 hours) was “inhibited cell proliferation”.

For CNC(=O)c1cc(Oc2ccc(NC(=O)Nc3ccc(Cl)c(C(F)(F)F)c3)cc2)ccn1 [Sorafenib], the “LCN2 mRNA expression” value (LCN2 mRNA; SULF2-WT cells, 2 μM sorafenib, 72 hours) was “significantly induced”, the “LCN2 mRNA expression” value (LCN2 mRNA; vector and SULF2-N491K cells, 2 μM sorafenib, 72 hours) was “induced only a small amount” and the IC50 (Huh7 cells; Homo sapiens, Huh-7, 48 h, Huh7 cells, NT shRNA, 48 hours) was 10.2 µM. It also gave an IC50 (Huh7 cells; Homo sapiens, Huh-7, 48 h, Huh7 cells, SULF2 knockdown (SULF2 shRNA), 48 hours) of 6.17 µM, an IC50 (Huh7 cells; Homo sapiens, Huh-7, Huh7 cells expressing NTRK3-N522K) of 5.8 µM and an IC50 (Huh7 cells; Homo sapiens, Huh-7, Huh7 cells expressing NTRK3-WT) of 7.64 µM. For the same molecule, the IC50 (Huh7 cells; Homo sapiens, Huh-7, Huh7 cells, sorafenib in combination with 200 μM OKN-007) was 5.06 µM, the amphiregulin expression (amphiregulin mRNA) was “significantly increased” and the “sorafenib susceptibility after LCN2 knockdown” value [3] was “restoration of sorafenib susceptibility”. For the same molecule, the “SULF2 mRNA expression” value (SULF2 mRNA) was “significantly increased in a time-dependent manner”, the “susceptibility to sorafenib with OKN-007 treatment” value (Hep3B cells [2]; Hep3B vector and SULF2-N491K cells, 48 hours) was “did not change” and the IC50 (Hep3B cells [2]; Hep3B-SULF2-WT cells) was 7.51 µM. The IC50 (Hep3B cells [2]; Homo sapiens, Hep3B, 48 h, Hep3B cells expressing wild-type SULF2, sorafenib in combination with OKN-007, 48 hours) was 3.17 µM, the IC50 (Hep3B cells [2]; Homo sapiens, Hep3B, 48 h, SULF2-WT cells with knockdown of LCN2 by shRNA) was 3.95 µM and the IC50 (Hep3B cells [2]; Homo sapiens, Hep3B, Hep3B cells expressing SULF2-N491K) was 3.54 µM. The IC50 (Hep3B cells [2]; Homo sapiens, Hep3B, Hep3B-SULF2-WT cells) was 7.51 µM, the IC50 (Hep3B cells [2]; Homo sapiens, Hep3B, Hep3B-vector cells) was 3.37 µM and the IC50 (HepG2 cells; HepG2, HepG2 cells, NT shRNA) was 4970 nM. The IC50 (HepG2 cells; HepG2, HepG2 cells, SULF2 knockdown (SULF2 shRNA)) was 2380 nM and the IC50 (HepG2 cells; HepG2, HepG2 cells, sorafenib in combination with OKN-007) was 1760 nM.

In the case of COc1cc2ncnc(Nc3ccc(F)c(Cl)c3)c2cc1OCCCN1CCOCC1 [gefitinib], the “LCN2 mRNA expression” value (LCN2 mRNA; SULF2-WT cells, 48 hours, OKN-007 200 μM, gefitinib 5 μM) is reported as “significantly inhibited”, the cell migration (Hep3B cells [1]; SULF2-WT cells compared with vector and SULF2-N491K cells) is reported as “significantly inhibited” and the cell growth (Hep3B cells [2]; SULF2-WT cells compared with vector and SULF2-N491K cells, 48 hours) is reported as “significantly inhibited”.

B1: amphiregulin: recombinant human amphiregulin, the EGFR ligand, from R & D systems (protein, UniProt P15514 101-187, looked up)
Amphiregulin: SVRVEQVVKPPQNKTESENTSDKPKRKKKGGKNGKNRRNRKKKNPCNAEFQNFCIHGECKYIEHLEAVTCKCQQEYFGERCGEKSMK
With B1 the “activation of EGFR and downstream signaling pathways including STAT1 and ERK” value (EGFR) was “elevated activation” and the “p65 and LCN2 protein levels” value (EGFR) was “significantly increased”.

Reference: patent publication US11510911B2 (AJOU UNIVERSITY INDUSTRY—ACADEMIC COOPERATION FOUNDATION, priority 2017, dated 2022)
